Measured values from patent US20120171531A1, “REDOX FLOW BATTERY” (Samsung Electronics Co., Ltd., priority 2010, published 2012).

Test: Viscosity of prepared electrolyte solution, Rheometer (AR2000)
Format: physicochemical
Settings: solvent PC
Description: The solubilities of each metal-ligand coordination compound obtained in Preparation Examples 1 through 3 in solvents and viscosity of prepared electrolyte solutions were measured and the results are shown in Table 1. Viscosities were measured using a Rheometer (AR2000).

F[B-](F)(F)F.F[B-](F)(F)F.[Fe+2].c1ccc(-c2ccccn2)nc1.c1ccc(-c2ccccn2)nc1.c1ccc(-c2ccccn2)nc1 [Preparation Example 1, Fe^2+—(bpy)3 [BF4]2]
Viscosity (cps): 4.8 cps

F[B-](F)(F)F.F[B-](F)(F)F.[Ni+2].c1ccc(-c2ccccn2)nc1.c1ccc(-c2ccccn2)nc1.c1ccc(-c2ccccn2)nc1 [Preparation Example 2, Ni^2+—(bpy)3 [BF4]2]
Viscosity (cps): 4.9 cps
